The source of these data is patent publication US8232448B2, “Transgenic mouse with a homozygous mutation in the CMAH gene” (The Regents of the University of California, priority 2005, dated 2012).

Test [1] concerns normal human skin fibroblasts. The test is described as follows: Neu5Gc/ManNGc feeding experiment, normal (WT) fibroblasts, DMB-HPLC. The settings on record: for percent of Neu5Gc in membrane-bound glycoconjugates: normal wild-type (WT) fibroblasts, fed 3 mM for 3 days. The format is cell-based. The procedure: (§1) Neu5Gc and ManNGc Feeding Experiment—Neu5Ac, Neu5Gc or ManNGc were dried, dissolved in the appropriate media supplemented with heat-inactivated human serum, sterilized using a Spin-X® (Corning Inc., Corning, N.Y.) and then added to the cells. The pH of the media containing Sia was adjusted to neutrality using sterilized 1M NaOH before starting the feeding experiment. Cells were cultured in the presence of up to 3 mM free Sia or ManNGc for 1 or 3 days at 37° C. At the end of the feeding, cells were washed with cold PBS, harvested either by scraping or with 2 mM EDTA for fibroblasts, and washed again with cold PBS prior to fractionation.
Fractionation of the Labeled Cells—Washed cell pellets were sonicated into 500 μL of 20 mM sodium phosphate buffer or 20 mM Tris-HCl, pH 7.5, using 4×15 second pulses of a sonicator cell disrupter, model Some Dismembrator (Fisher Scientific, Hampton, N.J.) at a probe setting of 3. The sonicate was centrifuged at 75×g for 15 min., and the pellet Obtained consisted primarily of nuclei and unbroken cells. The pellet contained <5% of the incorporated sialic acid as determined using a radioactive tracer (data not shown.) The supernatant was therefore considered as the “total homogenate” fraction. A portion (20%) of the “total homogenate” fraction was taken for protein quantification and Sia analysis by DMB derivatization and HPLC analysis (as discussed below.) The remainder was centrifuged at 100,000×g for 1 h. The resulting pellet, called the “membrane” fraction, was then resuspended by sonication (15 sec.) in 200 μl of sodium acetate buffer, pH 5.5. The 100,000×g supernatant, called the “soluble” fraction was adjusted to 90% ethanol using absolute ice-cold ethanol, and placed overnight at −20° C. The flocculant precipitate, which represents the “soluble protein” fraction, was washed 3 times with 90%® ice-cold ethanol and then resuspended in 200 μl of water. The supernatant fluid representing the cytosolic low molecular weight (LMW) fraction was dried and brought up in 100 μL with water prior to Sia analysis. All the Sias in these fractions were released with mild acid hydrolysis if necessary and then analyzed by HPLC after DMB derivatization. Protein quantification was performed on the total homogenate, membrane and soluble protein fractions by using the BCA protein assay kit from Pierce (Rockford, Ill.) In some experiments, the resulting data obtained for the Sia bound to the membrane fraction and to the soluble proteins were pooled and presented here as a High Molecular Weight (HMW) fraction.
Sialic Acid Release, DMB Derivatization and HPLC Analysis—The bound Sias from the total homogenate, membrane and soluble protein fractions were released using 2M acetic acid hydrolysis, 3 h. at 80° C. The released Sias, or free Sias, contained in the soluble LMW fraction were passed through a Microcon® YM-10 filter (Millipore, Bedford, Mass.) prior to DMB derivatization, which was done according to Hara et al., 1989. DMB-Sia derivatives from the different fractions were then analyzed by HPLC using a C18 column (Microsorb MV-TM 100 A, Varian, Palo Alto, Calif.) Isocratic elution was achieved using 7% methanol, 8% acetonitrile in water during 50 min. at 0.9 ml/min flow. The eluant was monitored by fluorescence.
Quantification of Sias—For all HPLC chromatograms, the quantification of Sias was done by comparison with known quantities of DMB derivatized Neu5Gc and Neu5Ac used as standards and then reported in terms of pmoles of Sia. […]

In test [2] the test system is human LB EBV-transformed lymphoblasts. Kind of test: Neu5Gc/Neu5Ac feeding experiment, human lymphoblasts. Format: cell-based. On the procedure:
Cell Culture—Caco-2 cells were propagated in alpha-MEM containing GLUTAMAX™ (Invitrogen, San Diego, Calif.) and a mixture of ribonucleosides and deoxyribonucleosides (Gibco/Invitrogen, San Diego, Calif.) supplemented with 20% FCS. All the fibroblast cell lines and CHO-K1 cells were cultured in the same media supplemented respectively with 15% non-heat inactivated FCS or 10% heat inactivated FCS. Chimpanzee Fred and human LB EBV-transformed lymphoblasts were cultured in RPMI-1640 (Gibco/Invitrogen, San Diego, Calif.) supplemented with 10% heat inactivated FCS or 15% human serum. All of the cultures were maintained at 37° C., 5% CO2 atmosphere. In order to deplete any remaining Neu5Gc from FCS, the cells were split and cultured prior to Neu5Gc feeding experiments for at least 4 days in alpha-MEM supplemented with an adequate percentage of heat-inactivated premium human serum instead of FCS. The cells were then maintained under the same conditions during the whole feeding experiment. The human serum was heat inactivated at 56° C. for 30 min. before use.
Neu5Gc and ManNGc Feeding Experiment—Neu5Ac, Neu5Gc or ManNGc were dried, dissolved in the appropriate media supplemented with heat-inactivated human serum, sterilized using a Spin-X® (Corning Inc., Corning, N.Y.) and then added to the cells. The pH of the media containing Sia was adjusted to neutrality using sterilized 1M NaOH before starting the feeding experiment. Cells were cultured in the presence of up to 3 mM free Sia or ManNGc for 1 or 3 days at 37° C. […]
Fractionation of the Labeled Cells—Washed cell pellets were sonicated into 500 μL of 20 mM sodium phosphate buffer or 20 mM Tris-HCl, pH 7.5, using 4×15 second pulses of a sonicator cell disrupter, model Some Dismembrator (Fisher Scientific, Hampton, N.J.) at a probe setting of 3. […] The pellet contained <5% of the incorporated sialic acid as determined using a radioactive tracer (data not shown.) The supernatant was therefore considered as the “total homogenate” fraction. A portion (20%) of the “total homogenate” fraction was taken for protein quantification and Sia analysis by DMB derivatization and HPLC analysis (as discussed below.) The remainder was centrifuged at 100,000×g for 1 h. […] All the Sias in these fractions were released with mild acid hydrolysis if necessary and then analyzed by HPLC after DMB derivatization. Protein quantification was performed on the total homogenate, membrane and soluble protein fractions by using the BCA protein assay kit from Pierce (Rockford, Ill.) In some experiments, the resulting data obtained for the Sia bound to the membrane fraction and to the soluble proteins were pooled and presented here as a High Molecular Weight (HMW) fraction. […]

Test [3] concerns Caco-2 cells. Kind of test: Competition of free Neu5Ac with free Neu5Gc for incorporation. Format: cell-based, human. To be noted: Caco-2, 3 mM Neu5Gc 3 days, in the presence of 15 mM Neu5Ac. On the procedure:
Neu5Gc and ManNGc Feeding Experiment—Neu5Ac, Neu5Gc or ManNGc were dried, dissolved in the appropriate media supplemented with heat-inactivated human serum, sterilized using a Spin-X® (Corning Inc., Corning, N.Y.) and then added to the cells. The pH of the media containing Sia was adjusted to neutrality using sterilized 1M NaOH before starting the feeding experiment. […] At the end of the feeding, cells were washed with cold PBS, harvested either by scraping or with 2 mM EDTA for fibroblasts, and washed again with cold PBS prior to fractionation.
Fractionation of the Labeled Cells—Washed cell pellets were sonicated into 500 μL of 20 mM sodium phosphate buffer or 20 mM Tris-HCl, pH 7.5, using 4×15 second pulses of a sonicator cell disrupter, model Some Dismembrator (Fisher Scientific, Hampton, N.J.) at a probe setting of 3. […] The pellet contained <5% of the incorporated sialic acid as determined using a radioactive tracer (data not shown.) The supernatant was therefore considered as the “total homogenate” fraction. A portion (20%) of the “total homogenate” fraction was taken for protein quantification and Sia analysis by DMB derivatization and HPLC analysis (as discussed below.) The remainder was centrifuged at 100,000×g for 1 h. […] All the Sias in these fractions were released with mild acid hydrolysis if necessary and then analyzed by HPLC after DMB derivatization. […]

For test [4], the system named is Caco-2 cells. The test is described as follows: Neu5Gc feeding experiment, Neu5Gc in subcellular fractions by DMB-HPLC. The format is cell-based, human. The settings on record: fed 3 mM for 3 days. The procedure:
as §1
Fractionation of the Labeled Cells—Washed cell pellets were sonicated into 500 μL of 20 mM sodium phosphate buffer or 20 mM Tris-HCl, pH 7.5, using 4×15 second pulses of a sonicator cell disrupter, model Some Dismembrator (Fisher Scientific, Hampton, N.J.) at a probe setting of 3. The sonicate was centrifuged at 75×g for 15 min., and the pellet Obtained consisted primarily of nuclei and unbroken cells. The pellet contained <5% of the incorporated sialic acid as determined using a radioactive tracer (data not shown.) The supernatant was therefore considered as the “total homogenate” fraction. A portion (20%) of the “total homogenate” fraction was taken for protein quantification and Sia analysis by DMB derivatization and HPLC analysis (as discussed below.) The remainder was centrifuged at 100,000×g for 1 h. The resulting pellet, called the “membrane” fraction, was then resuspended by sonication (15 sec.) in 200 μl of sodium acetate buffer, pH 5.5. […] All the Sias in these fractions were released with mild acid hydrolysis if necessary and then analyzed by HPLC after DMB derivatization. Protein quantification was performed on the total homogenate, membrane and soluble protein fractions by using the BCA protein assay kit from Pierce (Rockford, Ill.) In some experiments, the resulting data obtained for the Sia bound to the membrane fraction and to the soluble proteins were pooled and presented here as a High Molecular Weight (HMW) fraction. […]

Test [5] has as its system Human neuroblastoma cells. Kind of test: Neu5Gc feeding experiment, neuroblastoma cells. The format is cell-based. To be noted: fed 3 mM for 3 days. The procedure:
as §1
Fractionation of the Labeled Cells—Washed cell pellets were sonicated into 500 μL of 20 mM sodium phosphate buffer or 20 mM Tris-HCl, pH 7.5, using 4×15 second pulses of a sonicator cell disrupter, model Some Dismembrator (Fisher Scientific, Hampton, N.J.) at a probe setting of 3. […] The pellet contained <5% of the incorporated sialic acid as determined using a radioactive tracer (data not shown.) The supernatant was therefore considered as the “total homogenate” fraction. A portion (20%) of the “total homogenate” fraction was taken for protein quantification and Sia analysis by DMB derivatization and HPLC analysis (as discussed below.) The remainder was centrifuged at 100,000×g for 1 h. […]

The test system of the next test is chimpanzee lymphoblasts. Kind of test: Neu5Gc/Neu5Ac feeding experiment, chimpanzee lymphoblasts. To be noted: chimpanzee lymphoblasts fed 3 mM for 3 days. Format: cell-based.
The mark [6] stands for this setting: human normal fibroblasts after 3 mM Neu5Gc feeding, 3 days.
Where [7] appears, read: human lymphoblasts fed 3 mM for 3 days.

With `O=C(CO)N[C@@H]1C(O)O[C@H](CO)[C@@H](O)[C@@H]1O` (some centres unmarked) [ManNGc, N-glycolylmannosamine], the “percent of Neu5Gc in membrane-bound glycoconjugates” value in test [1] came to 19%.

As to `CC(=O)N[C@H]1[C@H]([C@H](O)[C@H](O)CO)OC(O)(C(=O)O)C[C@@H]1O` (some centres unmarked) [Neu5Ac, N-acetylneuraminic acid], in test [2] (human lymphoblasts fed 3 mM Neu5Ac for 3 days), the “Neu5Gc detected in the cells” value is given as “almost no detectable Neu5Gc”. Further, the “Neu5Gc (percent of total Sia) in the membrane-bound fraction” value in the test with Caco-2 cells [3] is “almost to zero”.

Regarding `O=C(CO)N[C@H]1[C@H]([C@H](O)[C@H](O)CO)OC(O)(C(=O)O)C[C@@H]1O` (some centres unmarked) [Neu5Gc, N-glycolylneuraminic acid], in the test with Caco-2 cells [4], the “Neu5Gc (percent of total Sia), cytosolic low molecular weight (LMW) fraction” value worked out at 70%; the “Neu5Gc (percent of total Sia), high molecular weight fraction (HMW)” value is 46%; the “Neu5Gc (percent of total Sia), total homogenate (TH)” value was 58%. In test [1] (setting [6]), the “Neu5Gc (percent of total Sia), HMW fraction” value came to 39%; the “Neu5Gc (percent of total Sia), TH fraction” value came out at 28%; the “Neu5Gc (percent of total Sia), cytosolic LMW fraction” value is 41%. Besides, the “percent of Neu5Gc in membrane-bound glycoconjugates” value in test [1] is reported as 37%. Moreover, the Neu5Gc incorporation efficiency entry in test [5] is reported as “efficiency comparable to the Caco-2 cells”. Moreover, in test [2] (setting [7]), the “Neu5Gc (percent of total Sia), HMW fraction” value turned out to be 51%; the “Neu5Gc (percent of total Sia), LMW cytosolic fraction” value amounted to 80%; the “Neu5Gc (percent of total Sia), TH fraction” value is recorded as 67%. Besides, the “Neu5Gc (percent of total Sia), TH fraction” value in the test with chimpanzee lymphoblasts (non-fed baseline 57%) is recorded as 70%. In the test on chimpanzee lymphoblasts (non-fed baseline 66%), the “Neu5Gc (percent of total Sia), HMW fraction” value stood at 72%. The “Neu5Gc (percent of total Sia), LMW fraction” value with chimpanzee lymphoblasts (non-fed baseline 70%) was found to be 84%.
